The test system of test [1] is iPSC-derived excitatory cortical neurons (NGN2) with loss of function knockout. Description: Optopatch functional phenotype reversal in knockout (KO) disease-model neurons versus wildtype control. The class given is cell-based, human. The following applies: for cell behavior projected onto phenotype/side effect space: KO cells, 8 concentrations from 0.28 to 600 μM, two replicates; for reversal of disease-model functional phenotype (radar plot of action potential features): KO disease-model cells stimulated in presence of compound, normalized to control cells. Here is the method: In this example, iPSC-derived excitatory cortical neurons (NGN2) were grown for 30 days in a culture. The neurons expressed Optopatch proteins as described in Example 1. Two sets of neurons were grown. The first was a wildtype control line.
The cells were stimulated using blue light as described in Example 1 and their action potentials recorded as voltage traces. Recordings were made of the control cells and disease-model cells when stimulated in the absence of any test compound. Recordings were also made of the disease-model cells when stimulated in the presence of the promiscuous potassium channel blocker 4-AP and the promiscuous sodium channel blocker lamotrigine.
FIG. 23 provides radar plots representing functional phenotypes generated by a machine learning system using action potential features extracted from the recorded action potentials when the cells were stimulated by blue light. The values for the features are normalized to the control cell recordings. […] The differences in the recorded traces, select features of which are provided on the radar plots, show the functional phenotype of the disease-model.
FIG. 24 is a diagram illustrating phenotype reversal and “side effects” described by mapping extracted action potential features on the ˜300-dimensional space of recorded parameters, only two of which are shown. Extracted features for the control cell (WT) wells (green) are clustered as are those for the KO cells (red). The vector between these populations represents the phenotype (red). Drug effects (blue) are deconstructed into components along (phenotype reversal) and orthogonal to (side effects) the phenotype vector. An ideal drug would undo the effects of the mutation and move the well from the KO cluster to the control cell cluster.
FIG. 25 is a plot showing many wells projected onto the phenotype/side effect space. WT and KO wells are well separated along the phenotype direction. Application of the two compounds (8 concentrations from 0.28 to 600 μM) from FIG. 25 have increasing effects on KO cell behavior as the concentration increases. […] The connected drug points are in order of increasing concentration, and the two lines are experimental replicates on two consecutive weeks of experiment.

Test [2] has as its system E18 rat hippocampal neurons. Briefly: Optopatch functional phenotypes of compounds in cultured neurons. The class given is cell-based. To be noted: normalized to control vehicle, 14 days culture. Here is the method: E18 rat hippocampal neurons were cultured for 14 days and caused to express Optopatch proteins as described in Example 1. The cells were stimulated in the presence of XE-991 (a Kv7.x blocker), ML-213 (a Kv7.x opener), a-Dendrotoxin (a Kv1.x blocker), OXO-M (a muscarinic agonist), 4AP (a promiscuous Kv blocker), Isradipine (a Cav1.x blocker), or a control vehicle. FIG. 26 provides radar plots representing generated functional phenotypes indicative of the drug-induced changes in neuronal spiking behavior along many dimensions. The action potential feature values were normalized to those for the cells simulated in the presence of the control vehicle. As shown in the radar plots, each compound provided a discernable and unique functional phenotype. […] FIG. 27 provides concentration response curves for the cells in the presence of varied concentrations of the compounds. Each symbol represents >100 cells in one well and all measurements were obtained in a single day. Thus, the present systems and methods can not only elucidate therapeutic responses of various compounds, but also show concentration-dependent responses. Moreover, as the measurements were taken in a single day, the presently disclosed systems and methods enable fast, high-throughput drug screening.

Test [3] has as its system E18 rat hippocampal neurons. Briefly: Optopatch 96-well plate firing assay, alternating columns compound/vehicle. The class given is cell-based. To be noted: ML-213 at 1 μM versus vehicle wells. As to the method: E18 rat hippocampal neurons were cultured for 14 days and caused to express Optopatch proteins as described in Example 1. The cells were placed in wells of a 96-well plate. ML-213 at 1 μM was added to alternating columns of the plate and a control vehicle added to the remaining columns. The cells in all wells were stimulated and their action potentials recorded using a microscope as described in Example 1.
FIG. 30 provides the average firing rate during the blue light stimulus ramp for each well.
FIG. 32 provides a plot of the average number of spikes recorded for individual cells in each well during the blue light stimulus ramp.

The subject of test [4] is hiPSC-derived motor neurons. Description: Optopatch optical stimulation and voltage recording of hiPSC-derived motor neurons before and after compound addition. The class given is cell-based, human. An excerpt:
Human induced pluripotent stem cells (hiPSC) were differentiated into hiPSC-derived motor neurons. The cells expressed an optogenetic proteins from the Optopatch toolkit (optical stimulation plus optical voltage reporting, e.g., CheRiff & QuasAr), which allows simultaneous optical stimulation and recording of neuronal action potentials.
The channelrhodopsin CheRiff enables action potential stimulation with blue light and the voltage-sensitive fluorescent protein QuasAr enables high-speed electrical recordings with red light. A microscope, as disclosed herein, obtained simultaneous voltage recordings from >100 individual neurons over a large (0.5×4 mm) field of view (FOV) with 1 ms temporal resolution and high signal-to-noise ratio (SNR). A digital micromirror device (DMD) in the microscope projected a fully reconfigurable optical pattern to sequentially stimulate cells while recording from many post-synaptic partners. […]
In every trace the spikes were detected and the key spike shape and timing parameters were computed. […]
Pixels in the recording that captured fluorescence from the reporters of membrane potential in each neuron co-varied in time following that cell's unique firing pattern. […] Each FOV was recorded twice, before and after addition of potassium channel opener ML-213. […]

Take `Nc1ccncc1` [4-AP]: in test [1], the “cell behavior projected onto phenotype/side effect space” value was “moves cell behavior toward and beyond WT behavior”; the “reversal of disease-model functional phenotype (radar plot of action potential features)” value was “substantially reversed the phenotype”.
As for `Cc1cc(C)c(NC(=O)C2CC3CCC2C3)c(C)c1` (stereo not drawn) [ML-213], the “drug-induced changes in neuronal spiking behavior (functional phenotype)” value in test [2] was “drove cellular response, as expected”. In addition, the “average firing rate during the blue light stimulus ramp” value in test [3] is given as “dramatically reduces firing rate”. In addition, in test [4] (1 μM ML-213, same neurons before and after addition, blue light stimulus), the neuronal excitability result was “clear reduction in neuronal excitability”. Besides, the “resting potential and action potential firing” value in test [4] (hiPSC-derived motor neurons) was “lowers resting potential and suppresses action potential firing”.
Turning to `O=C1c2ccccc2C(Cc2ccncc2)(Cc2ccncc2)c2ccccc21` [XE-991], the “drug-induced changes in neuronal spiking behavior (functional phenotype)” value in test [2] was “drove cellular response, as expected”.
For `Nc1nnc(-c2cccc(Cl)c2Cl)c(N)n1` [lamotrigine], in test [1], the “cell behavior projected onto phenotype/side effect space” value is “moves behavior away from both WT and KO”; the “reversal of disease-model functional phenotype (radar plot of action potential features)” value is reported as “perturbed behavior but did not reverse the phenotype”.
